In patent US12186283B2, “Bismuth-thiol compositions and methods of use” (Microbion Corporation, priority 2018, dated 2025):
Converted amounts (≈) assume the structure as drawn. “And” between values parts separate entries of the source, which are not always exact repeats. Equal values may be shown once. Read-outs that look alike come from different tables or passages of the source.

Columns and labels:
[1] = test system: N. gonorrhoeae; conditions: N. gonorrhoeae MMX 683 (ATCC 49226); cited from earlier work
[2] = test system: Pseudomonas aeruginosa; conditions: P. aeruginosa MMX 103 (ATCC 27853); cited from earlier work
[3] = test system: beta-hemolytic streptococci (S. pyogenes, S. agalactiae); assay: Broth microdilution MIC (Example 11); format: cell-based, Streptococcus pyogenes, Streptococcus agalactiae; conditions: read-out: MIC
[4] = test system: Escherichia coli; conditions: E. coli MMX 102 (ATCC 25922); cited from earlier work
[5] = test system: Burkholderia cepacia complex; assay: Checkerboard FIC assay, BisEDT with CF agents (Example 10); format: cell-based, Burkholderia spp.
[6] = test system: S. pneumoniae (pneumococci); conditions: S. pneumoniae MMX 6837 (ATCC 49619); cited from earlier work
[7] = test system: P. aeruginosa; assay: Checkerboard FIC assay, BisEDT with CF agents (Example 10); format: cell-based, Pseudomonas aeruginosa; conditions: for MICB: Meropenem MIC in combination with BisEDT
[8] = test system: Enterococcus spp. (E. faecalis, E. faecium); assay: Broth microdilution MIC (Example 11); format: cell-based; conditions: VRE, VRE, LevR, CipR, EryR
[9] = test system: Pseudomonas aeruginosa; assay: Broth microdilution MIC (Example 11); format: cell-based
[10] = test system: Staphylococcus aureus (MRSA); conditions: S. aureus MMX 101 (ATCC 29213); cited from earlier work
[11] = test system: Klebsiella pneumoniae; assay: Broth microdilution MIC (Example 11); format: cell-based
[12] = test system: Enterobacter cloacae; assay: Broth microdilution MIC (Example 11); format: cell-based; conditions: E. cloacae MMX 5981 (ATCC BAA-2468); NDM-1, LevR, MEMR, CAZR, GmR
[13] = test system: Staphylococcus aureus (MRSA); assay: Broth microdilution MIC (Example 11); format: cell-based
[14] = test system: Acinetobacter baumannii; assay: Broth microdilution MIC (Example 11); format: cell-based
[15] = test system: Escherichia coli; assay: Broth microdilution MIC (Example 11); format: cell-based
[16] = test system: Clostridium difficile; conditions: C. difficile MMX 4381 (ATCC 700057), CC^I; cited from earlier work
[17] = test system: Bacteroides fragilis; conditions: B. fragilis MMX 123 (ATCC 25285); cited from earlier work
[18] = P. aeruginosa 6322, Meropenem in combination with BisEDT, checkerboard rows C-G

## CO/N=C(\C(=O)N[C@@H]1C(=O)N2C(C(=O)O)=C(CSc3nc(=O)c(=O)[nH]n3C)CS[C@H]12)c1csc(N)n1 [Ceftriaxone]
[1]
  MIC, CLSI QC range: (0.004-0.015) μg/mL

## C[C@@H](O)[C@H]1C(=O)N2C(C(=O)O)=C(S[C@@H]3CN[C@H](C(=O)N(C)C)C3)[C@H](C)[C@H]12 [Meropenem, reference compound]
[2]
  CLSI QC range (MIC): (0.25-1)
[3]; S. agalactiae MMX 3741, ERY^R CC^R
  MIC: 0.03 µg/mL (≈ 0.0782 µM)
[3]; S. agalactiae MMX 3743, ERY^R CC^R
  MIC: 0.06 µg/mL (≈ 0.156 µM)
[3]; S. agalactiae MMX 4077, ERY^R CC^R
  MIC: 0.06 µg/mL (≈ 0.156 µM)
[3]; S. agalactiae MMX 4079, ERY^R CC^R Pen^R MEM^R
  MIC: 8 µg/mL (≈ 20.9 µM)
[3]; S. agalactiae MMX 4086, ERY^R CC^R
  MIC: 0.06 µg/mL (≈ 0.156 µM)
[4]
  CLSI QC range (MIC): (0.008-0.06) μg/mL
[5]; B. cenocepacia 548, FIC of Meropenem in combination with BisEDT
  FICB: 1
[5]; B. cenocepacia 548, MIC of Meropenem in combination with BisEDT
  MICB: 4 µg/mL
[5]; B. cenocepacia 813, FIC of Meropenem in combination with BisEDT
  FICB: 1
[5]; B. cepacia 546, Meropenem FIC in combination with BisEDT, per checkerboard row
  FICB: 1 and 2
[5]; B. cepacia 546, Meropenem MIC in combination with BisEDT, per checkerboard row
  MICB: 4 µg/mL and 8 µg/mL
[5]; B. cepacia 1793, Meropenem FIC in combination with BisEDT, per checkerboard row
  FICB: 2 and 4
[5]; B. cepacia 1793, Meropenem MIC in combination with BisEDT, per checkerboard row
  MICB: 8 µg/mL and 16 µg/mL
[5]; B. multivorans 1795, MIC of Meropenem in combination with BisEDT
  MICB: 4 µg/mL
[5]; B. multivorans 1795, Meropenem alone, panel with BisEDT, read-out: Drug B MIC
  MIC: 4 µg/mL
[6]
  MIC, CLSI QC range: (0.06-0.25) μg/mL
[7]; [18]
  FICB: 1
  MICB (Drug B concentration in combination): 16 µg/mL
[7]; P. aeruginosa 8798, Meropenem FIC in combination with BisEDT, per checkerboard row
  FICB: 1
[7]; P. aeruginosa 8798, per checkerboard row
  MICB: 32 µg/mL
[7]; P. aeruginosa 9108, Meropenem FIC in combination with BisEDT, per checkerboard row
  FICB: 1
[7]; P. aeruginosa 9108, per checkerboard row
  MICB: 1 µg/mL
[8]; Enterococcus faecium, E. faecium MMX 485, vanA, read-out: MIC
  MIC: > 64 µg/mL

## Gentamicin
[9]; P. aeruginosa MMX 103 (ATCC 27853), QC
  MIC: 1 µg/mL
[9]; P. aeruginosa MMX 1381, MDR, LevR, CipR, MEMR, CAZR
  MIC: 8 µg/mL
[9]; P. aeruginosa MMX 2562, MDR, LevR, CipR, MEMR, CAZR
  MIC: 8 µg/mL
[9]; P. aeruginosa MMX 3991, MDR, LevR, CipR, MEMR, CAZR
  MIC: 4 µg/mL
[9]; P. aeruginosa MMX 4654, IMP-7, LevR, CipR, MEMR, CAZR
  MIC: > 64 µg/mL
[9]; P. aeruginosa MMX 4697, VIM-2, LevR, CipR, MEMR, CAZR
  MIC: 4 µg/mL
[2]
  CLSI QC range (MIC): (0.5-2)
[10]
  CLSI QC range (MIC): (0.12-1) μg/mL
[4]
  CLSI QC range (MIC): (0.25-1) μg/mL
[11]; K. pneumoniae MMX 4622, KPC-2, MEMR, CAZR
  MIC: 0.25 µg/mL
[11]; K. pneumoniae MMX 4623, KPC-2, MEMR, CAZR, GMR
  MIC: 64 µg/mL
[11]; K. pneumoniae MMX 4653, KPC-3, LevR, MEMR, CAZR
  MIC: 1 µg/mL
[11]; K. pneumoniae MMX 4683, KPC-2, LevR, MEMR, CAZR
  MIC: 1 µg/mL
[11]; K. pneumoniae MMX 4684, ESBL, MEMR
  MIC: 0.25 µg/mL
[11]; K. pneumoniae MMX 4685, ESBL, LevR, MEMR, CAZR
  MIC: 1 µg/mL
[11]; K. pneumoniae MMX 4694, KPC-3, LevR, MEMR, CAZR
  MIC: 8 µg/mL
[11]; K. pneumoniae MMX 5979, NDM-1, LevR, MEMR, CAZR, GmR
  MIC: >64 µg/mL
[12]
  MIC: >64 µg/mL
[13]; S. aureus MMX 101 (ATCC 29213), QC, MSSA
  MIC: 0.12 µg/mL
[13]; S. aureus MMX 5373, MRSA, LevR, CipR, CCR, EryR, OxR
  MIC: 0.25 µg/mL
[13]; S. aureus MMX 6311, MRSA, LevR, CipR, CCR, EryR, OxR
  MIC: 0.25 µg/mL
[13]; S. aureus MMX 9203, MRSA, LevR, CipR, EryR, OxR
  MIC: 0.12 µg/mL
[13]; S. aureus MMX 9204, MRSA, LevR, CipR, EryR, OxR
  MIC: 0.25 µg/mL
[13]; S. aureus MMX 9205, MRSA, LevR, CipR, CCR, EryR, OxR
  MIC: 0.25 µg/mL
[8]; E. faecalis MMX 8960
  MIC: >64 µg/mL
[8]; E. faecalis MMX 8961
  MIC: 8 µg/mL
[8]; E. faecalis MMX 8962
  MIC: >64 µg/mL
[8]; E. faecium MMX 485, vanA
  MIC: >64 µg/mL
[8]; E. faecium MMX 752, vanA
  MIC: >64 µg/mL
[14]; A. baumannii MMX 2592, MDR, LevR, CipR, MEMR, CAZR, GmR
  MIC: > 64 µg/mL
[14]; A. baumannii MMX 2593, MDR, LevR, CipR, MEMR, CAZR, GmR
  MIC: > 64 µg/mL
[14]; A. baumannii MMX 3372, MDR, CipR, MEMI, CAZI
  MIC: 0.5 µg/mL
[14]; A. baumannii MMX 3373, Sensitive
  MIC: 0.12 µg/mL
[14]; A. baumannii MMX 4651 (NCTC 13304), MDR, OXA-27, LevR, CipR, MEMR, CAZR, GmI
  MIC: 8 µg/mL
[15]; E. coli MMX 102 (ATCC 25922), QC
  MIC: 1 µg/mL
[15]; E. coli MMX 5980 (ATCC BAA-2469), NDM-1, LevR, MEMR, CAZR, GmR
  MIC: >64 µg/mL
[15]; E. coli MMX 8423, ESBL, LevR, CAZR, GmR
  MIC: 64 µg/mL
[15]; E. coli MMX 8424, ESBL, CAZR
  MIC: 0.25 µg/mL
[15]; E. coli MMX 8425, ESBL, LevR, CAZR, GmR
  MIC: >64 µg/mL

## CCc1c(Cl)c(O)c(Cl)c(O)c1C(=O)O[C@H]1[C@H](O)[C@H](OC)[C@H](OC/C2=C\C=C\C[C@H](O)/C(C)=C/[C@H](CC)[C@@H](O[C@@H]3OC(C)(C)[C@@H](OC(=O)C(C)C)[C@H](O)[C@@H]3O)/C(C)=C/C(C)=C/C[C@@H]([C@@H](C)O)OC2=O)O[C@@H]1C [Fidaxomicin]
[16]
  MIC, CLSI QC range: (0.06-0.25) pg/mL

## Cc1ncc([N+](=O)[O-])n1CCO [Metronidazole]
[17]
  MIC, CLSI QC range: (0.25-1) pg/mL
[16]
  MIC, CLSI QC range: (0.12-0.5) pg/mL
